What was measured:
M1 muscarinic receptor = molecular target: T1, M1 muscarinic receptor (Homo sapiens, UniProt P11229); assay: Functional mobilization of intracellular calcium (FLIPR), M1-CHO cells; assay type: cell-based; settings: for Emax: 100% efficacy is the maximum response obtained using Carbachol as a control; for M1 Activity: M1-CHO cells, FLIPR calcium mobilization
T1 construct: expressed in transfected cells; host or cells: CHO (M1-CHO)
T1 sequence (P11229 1-460): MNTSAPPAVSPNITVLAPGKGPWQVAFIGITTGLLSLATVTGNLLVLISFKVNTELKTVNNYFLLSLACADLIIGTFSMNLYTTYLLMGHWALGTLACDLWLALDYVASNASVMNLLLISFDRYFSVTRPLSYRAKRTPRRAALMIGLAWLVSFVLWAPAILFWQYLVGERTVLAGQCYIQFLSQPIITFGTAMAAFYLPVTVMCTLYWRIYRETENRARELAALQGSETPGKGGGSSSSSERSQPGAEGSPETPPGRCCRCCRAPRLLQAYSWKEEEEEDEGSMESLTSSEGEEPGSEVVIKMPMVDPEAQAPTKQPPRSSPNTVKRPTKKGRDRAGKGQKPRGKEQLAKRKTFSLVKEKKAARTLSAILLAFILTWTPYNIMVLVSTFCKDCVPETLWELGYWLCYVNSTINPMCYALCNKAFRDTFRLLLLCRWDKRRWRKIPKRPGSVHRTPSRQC
Method in brief: (§1)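 CHO cells expressing M1 or M4, loaded with Fluo-3 AM or Calcium 3 dye with 1 mM probenecid, 0.5% DMSO final. Agonist mode: compound added directly; antagonist mode: 15 min pre-incubation (or co-application) before carbachol at EC80. Fluorescence recorded 60 s on FLIPR.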

M4 muscarinic receptor = molecular target: T2, M4 muscarinic receptor (Homo sapiens, UniProt P08173); assay: Functional mobilization of intracellular calcium (FLIPR), M4-CHO cells; assay type: cell-based; settings: for Emax: 100% efficacy is the maximum response obtained using Carbachol as a control; for M4 Activity: M4-CHO cells, FLIPR calcium mobilization
T2 construct: expressed in transfected cells; host or cells: CHO (M4-CHO)
T2 sequence (P08173 1-479): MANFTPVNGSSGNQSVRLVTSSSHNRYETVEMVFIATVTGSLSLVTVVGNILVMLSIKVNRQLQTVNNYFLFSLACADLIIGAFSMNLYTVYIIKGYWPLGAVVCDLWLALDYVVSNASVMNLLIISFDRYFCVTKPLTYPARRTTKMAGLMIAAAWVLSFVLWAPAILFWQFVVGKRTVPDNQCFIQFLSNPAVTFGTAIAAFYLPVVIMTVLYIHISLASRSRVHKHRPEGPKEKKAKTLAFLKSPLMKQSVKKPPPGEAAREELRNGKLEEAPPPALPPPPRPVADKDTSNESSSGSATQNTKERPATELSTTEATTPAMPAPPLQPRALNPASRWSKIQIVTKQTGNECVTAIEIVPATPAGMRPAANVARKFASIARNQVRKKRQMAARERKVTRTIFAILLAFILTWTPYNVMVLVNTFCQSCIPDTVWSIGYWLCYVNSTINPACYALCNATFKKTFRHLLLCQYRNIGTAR
Method in brief: as §1

Row | Compound | Emax (M1 muscarinic receptor) | M1 Activity (M1 muscarinic receptor) | Emax (M4 muscarinic receptor) | M4 Activity (M4 muscarinic receptor)
1 | CCOC(=O)N1C2CCC1CC(N1CCC3(CC1)CN(C(=O)c1sc(C)nc1C)Cc1ccccc13)C2 (stereo not drawn) [compound 203] | 25 to 100% | +++ (activity was measured to be less than 1.0 μM) | 25 to 100% | +++ (activity was measured to be less than 1.0 μM)
2 | CCOC(=O)N1CCC(N2CCC3(CC2)CN(S(C)(=O)=O)Cc2ccccc23)CC1 [compound 311] | 25 to 100% | +++ (activity was measured to be less than 1.0 μM) | 25 to 100% | +++ (activity was measured to be less than 1.0 μM)
3 | CCOC(=O)N1CCC(N2CCC3(CC2)CN(C(=O)N2CCCC2)Cc2ccccc23)CC1 [compound 110] | 25 to 100% | +++ (activity was measured to be less than 1.0 μM) | 25 to 100% | +++ (activity was measured to be less than 1.0 μM)
4 | CCOC(=O)N1C2CCC1CC(N1CCC3(CC1)CN(C(=O)C1(C)CC1)Cc1ccccc13)C2 (stereo not drawn) [compound 244] | 25 to 100% | +++ (activity was measured to be less than 1.0 μM) | 25 to 100% | +++ (activity was measured to be less than 1.0 μM)
5 | O=C(OC1CCC1)N1Cc2ccccc2C2(CCN(C3CC4CCC(C3)N4C(=O)OC3CCC3)CC2)C1 (stereo not drawn) [compound 194] | 25 to 100% | +++ (activity was measured to be less than 1.0 μM) | 25 to 100% | +++ (activity was measured to be less than 1.0 μM)
6 | Cc1cc(C(=O)N2Cc3ccccc3C3(CCN(C4CC5CCC(C4)N5C(=O)O[C@@H]4CCOC4)CC3)C2)nn1C (stereo partly drawn) [compound 210] | 25 to 100% | +++ (activity was measured to be less than 1.0 μM) | 25 to 100% | +++ (activity was measured to be less than 1.0 μM)
7 | CC(=O)N1Cc2ccccc2C2(CCN(CC3CCC(C)=CC3C)CC2)C1 (stereo not drawn) [compound 2] | < 25% |  | < 25% | 
8 | COC(=O)N1Cc2ccccc2C2(CCN(C3CC4CCC(C3)N4C(=O)OC(C)C)CC2)C1 (stereo not drawn) [compound 206] | 25 to 100% | +++ (activity was measured to be less than 1.0 μM) | 25 to 100% | +++ (activity was measured to be less than 1.0 μM)
9 | CS(=O)(=O)N1Cc2ccccc2C2(CCN(C3CC4CCC(C3)N4C(=O)O[C@H]3CCOC3)CC2)C1 (stereo partly drawn) [compound 181] | 25 to 100% | +++ (activity was measured to be less than 1.0 μM) | 25 to 100% | +++ (activity was measured to be less than 1.0 μM)
10 | CCOC(=O)N1CCC(CN2CCC3(CC2)CN(C(=O)Nc2ccccc2)Cc2ccccc23)CC1 [compound 51] | 25 to 100% | +++ (activity was measured to be less than 1.0 μM) | 25 to 100% | +++ (activity was measured to be less than 1.0 μM)
11 | CC(=O)N1Cc2ccccc2C2(CCN(Cc3ccc4c(c3)CCO4)CC2)C1 [compound 116] | < 25% | + (activity was measured to be greater than 5.0 μM) | < 25% | + (activity was measured to be greater than 5.0 μM)
12 | CCOC(=O)N1C2CCC1CC(N1CCC3(CC1)CN(C(=O)N1CCCCC1)Cc1ccccc13)C2 (stereo not drawn) [compound 344] | 25 to 100% | +++ (activity was measured to be less than 1.0 μM) | 25 to 100% | +++ (activity was measured to be less than 1.0 μM)
13 | CCCCNC(=O)N1Cc2ccccc2C2(CCN(C3CC4CCC(C3)N4C(=O)OCC)CC2)C1 (stereo not drawn) [compound 61] | 25 to 100% | +++ (activity was measured to be less than 1.0 μM) | 25 to 100% | +++ (activity was measured to be less than 1.0 μM)
14 | CCOC(=O)N1C2CCC1CC(N1CCC3(CC1)CN(c1ccc(C)c(C)c1)Cc1ccccc13)C2 (stereo not drawn) [compound 12] | 25 to 100% | +++ (activity was measured to be less than 1.0 μM) | 25 to 100% | +++ (activity was measured to be less than 1.0 μM)
15 | CC(=O)N1Cc2ccccc2C2(CCN(C3CCCCCC3)CC2)C1 [compound 349] | 25 to 100% | +++ (activity was measured to be less than 1.0 μM) | 25 to 100% | +++ (activity was measured to be less than 1.0 μM)
16 | CCOC(=O)N1CCC(CN2CCC3(CC2)CN(C(=O)OCCOC)Cc2ccccc23)CC1 [compound 22] | 25 to 100% | +++ (activity was measured to be less than 1.0 μM) | 25 to 100% | +++ (activity was measured to be less than 1.0 μM)
17 | CCOC(=O)N1C2CCC1CC(N1CCC3(CC1)CN(C(=O)C1CCCCC1)Cc1ccccc13)C2 (stereo not drawn) [compound 193] | 25 to 100% | +++ (activity was measured to be less than 1.0 μM) | < 25% | +++ (activity was measured to be less than 1.0 μM)
18 | CC(=O)N1Cc2ccccc2C2(CCN(Cc3cccc(F)c3)CC2)C1 [compound 247] | < 25% | + (activity was measured to be greater than 5.0 μM) | < 25% | + (activity was measured to be greater than 5.0 μM)
19 | CCOC(=O)N1CCC(N2CCC3(CC2)CN(C(=O)c2ccccc2)Cc2ccccc23)CC1 [compound 221] | 25 to 100% | +++ (activity was measured to be less than 1.0 μM) | 25 to 100% | +++ (activity was measured to be less than 1.0 μM)
20 | CCOC(=O)N1CCC(N2CCC3(CC2)CN(C2CCCCCC2)Cc2ccccc23)CC1 [compound 172, Ethyl 4-(2-cycloheptyl-2,3-dihydro-1H-spiro[isoquinoline-4,4-piperidine]-1′-yl)piperidine-1-carboxylate] | 25 to 100% |  | 25 to 100% | 
21 | CCOC(=O)N1CCC(N2CCC3(CC2)CN(C(C)=O)Cc2ccccc23)CC1 [compound 286] | 25 to 100% | +++ (activity was measured to be less than 1.0 μM) | 25 to 100% | +++ (activity was measured to be less than 1.0 μM)
22 | CCOC(=O)N1CCC(N2CCC3(CC2)CN(C(=O)OCC)Cc2ccccc23)CC1 [compound 120] | 25 to 100% | +++ (activity was measured to be less than 1.0 μM) | 25 to 100% | +++ (activity was measured to be less than 1.0 μM)
23 | CC(=O)N1Cc2ccccc2C2(CCN(C3CCC4(CC3)OCCO4)CC2)C1 [compound 93] | 25 to 100% | + (activity was measured to be greater than 5.0 μM) | < 25% | + (activity was measured to be greater than 5.0 μM)
24 | CCOC(=O)N1CCC(N2CCC3(CC2)CN(C(=O)c2snnc2C)Cc2ccccc23)CC1 [compound 328] | 25 to 100% | +++ (activity was measured to be less than 1.0 μM) | 25 to 100% | +++ (activity was measured to be less than 1.0 μM)
25 | CCOC(=O)N1CCC(N2CCC3(CC2)CN(C(=O)OCC(C)C)Cc2ccccc23)CC1 [compound 186] | 25 to 100% | +++ (activity was measured to be less than 1.0 μM) | 25 to 100% | +++ (activity was measured to be less than 1.0 μM)
26 | CC(=O)N1Cc2ccccc2C2(CCN(C3CCN(C(=O)OC(C)C)CC3)CC2)C1 [compound 88] | 25 to 100% | +++ (activity was measured to be less than 1.0 μM) | 25 to 100% | +++ (activity was measured to be less than 1.0 μM)
27 | CCOC(=O)N1CCC(N2CCC3(CC2)CN(CC2CCCCC2)Cc2ccccc23)CC1 [compound 87] | 25 to 100% | ++ (activity was measured to be from 1.0 μM to 5.0 μM) | < 25% | ++ (activity was measured to be from 1.0 μM to 5.0 μM)
28 | O=C1NC2(CCN(CC3CC4C=CC3C4)CC2)c2ccccc21 (stereo not drawn) [compound 267, 1′-(bicyclo[2.2.1]hept-5-en-2-ylmethyl)spiro[isoindoline-1,4′-piperidin]-3-one] | 25 to 100% | ++ (activity was measured to be from 1.0 μM to 5.0 μM) | 25 to 100% | ++ (activity was measured to be from 1.0 μM to 5.0 μM)
